Data on one substance can be found in patent US20050004029A1, “Methods and compositions for treating vascular leak using hepatocyte growth factor” (priority 2001, published 2005).

The subject of this assay is Bovine Pulmonary Artery Endothelium. The assay is described as follows: Transendothelial electrical resistance (TER) across bovine pulmonary artery endothelium. Particulars: VEGF 100 ng/ml, Sph 1-P 1 μM, HGF 20 ng/ml. The assay is classed as cell-based. On the procedure: Bovine pulmonary artery endothelial cells were purchased from the American Type Culture Collection (ATCC®, Rockville, Md.) and utilized at passage 19-24. Cells were maintained in Medium 199 (Life Technologies, Rockville, Md.) supplemented with 20% (v/v) colostrum-free bovine serum (CFBS) (Irvine Scientific, Santa Ana, Calif.), 15 μg/ml endothelial cell growth supplement (Upstate Biotechnology, Lake Placid, N.Y.), 1% antibiotic and antimycotic, and 0.1 mM non-essential amino acids (Life Technologies). Human pulmonary artery endothelial cells were purchased from Clonetics (Walkersville, Md.), cultured in EBM-2 complete medium (Clonetics) and utilized at passage 5-10. Human alveolar epithelial cells (A549) were purchased from ATCC® and cultured in the same medium as the bovine endothelial cells, except that the endothelial cell growth supplement was omitted. All cells were maintained at 37° C. in a humidified atmosphere of 5% CO2 and 95% air.
Electrical resistance of EC monolayers was measured using electrical cell impedance sensor system (Applied Biophysics Inc., Troy, N.Y.) as described in Garcia, J. G. N. et al. (2000) J. Appl. Physiol. 89:2333-2343. Cells grown on gold microelectrodes (10^−3 cm^2) in polycarbonate wells act as insulating particles, and the resistance across the monolayers (transendothelial electrical resistance, or TER) is measured in real time. As cells adhere on the microelectrode and intercellular cell contacts are formed or in response to agents which increase junctional integrity, the TER increases (Garcia, J. G. N. et al. (2001) J. Clin. Invest. 108:689-711). In contrast, cell retraction, rounding, or loss of adhesion is reflected by decreases in TER (Garcia, J. G. N. et al. (2000) J. Appl. Physiol. 89:2333-2343). These measurements provide a highly sensitive biophysical assay that indicates the state of cell shape, focal adhesion, and endothelial barrier function (Giaever, I. and Keese, C. R. (1993) Nature 366:591-592; Tiruppathi, C. et al. (1992) Proc. Natl. Acad. Sci. USA 89:7919-7923). All electrical resistance data are presented as normalized values. Briefly, current was applied across the electrodes by a 4000 Hz AC voltage source with an amplitude of 1 V in series with a 1 MΩ resistance to approximate a constant current source (−1 μA). The small gold electrode and the larger counter electrode (1 cm^2) were connected to a phase-sensitive lock-in amplifier (5301A; EG&G Instruments Corp, Princeton, N.J.) with a built in differential preamplifier (5316A; EG&G Instruments Corp.). The in-phase and out-of-phase voltages between the electrodes were monitored in real time with the lock-in amplifier and converted to scalar measurements of transendothelial impedance, of which resistance was the primary focus. […] For some experiments, total TER was vectorially resolved into components reflecting resistance to current flow beneath the cell layer (α) and resistance to current flow between adjacent cells (Rb) as described in Garcia et al. (2000) supra utilizing the method of Giaiver and Keese which models the endothelial monolayer mathematically (Giaever, I. and Keese, C. R. (1993) Nature 366:591-592). Thus, changes in α reflect alterations in the net state of cell-matrix adhesion, whereas changes in Rb reflect alterations in the integrity of cell-cell adhesion. TER values from each microelectrode were pooled at discrete time points and plotted versus time as the mean±standard error of the mean (Garcia et al. (2000) supra).

Setting [1] is: vs vehicle control, ±SEM, thrombin 100 μM.

For the substance “HGF: heparin-binding glycoprotein, multifunctional cytokine, ligand of c-Met; purchased from R&D Systems”, the “TER response in words” value (thrombin, 10-60 min) was “brisk and sustained increase in TER”. For the same substance, under setting [1], the “changes in TER 30 min” value is recorded as “+35 ± 5%” and the “changes in TER 60 min” value is listed as “+35 ± 4%”. Also, where the note is “vs vehicle control, ±SEM, thrombin 100 μM, (+) increased, (−) decreased”, the “changes in TER 10 min” value is on record as “+25 ± 3%”.
